Measurements from PubChem BioAssay (NCI).
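Results reflect a 48-hour exposure of cells in 96-well plates to compound at five concentrations. Here, GI50 denotes the concentration required for 50% inhibition of growth. The concentration for full growth arrest is given as TGI.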

Tests used:
Assay in all cases: NCI-60 cell line screen, 48 h
KM12 colon = system: KM12 colon
IGROV1 ovarian = system: IGROV1 ovarian
A498 renal = system: A498 renal
NCI-H23 lung = system: NCI-H23 lung
BT-549 breast = system: BT-549 breast
CAKI-1 renal = system: CAKI-1 renal
OVCAR-5 ovarian = system: OVCAR-5 ovarian
NCI-H226 lung = system: NCI-H226 lung
MALME-3M melanoma = system: MALME-3M melanoma
HCC-2998 colon = system: HCC-2998 colon
SF-295 CNS = system: SF-295 CNS
MOLT-4 leukemia = system: MOLT-4 leukemia
T-47D breast = system: T-47D breast
DU-145 prostate = system: DU-145 prostate
SF-268 CNS = system: SF-268 CNS
HS 578T breast = system: HS 578T breast
NCI-H460 lung = system: NCI-H460 lung
LOX IMVI melanoma = system: LOX IMVI melanoma
SR leukemia = system: SR leukemia
MDA-MB-435 = system: MDA-MB-435
NCI-H522 lung = system: NCI-H522 lung
HT29 colon = system: HT29 colon
RXF 393 renal = system: RXF 393 renal
SN12C renal = system: SN12C renal
MCF7 breast = system: MCF7 breast
A549 NSCLC = system: A549 NSCLC
TK-10 renal = system: TK-10 renal
SF-539 CNS = system: SF-539 CNS
SNB-75 CNS = system: SNB-75 CNS
HCT-116 colon = system: HCT-116 colon
SW-620 colon = system: SW-620 colon
SK-OV-3 ovarian = system: SK-OV-3 ovarian
U251 CNS = system: U251 CNS
M14 melanoma = system: M14 melanoma
UACC-62 melanoma = system: UACC-62 melanoma
EKVX NSCLC = system: EKVX NSCLC
SNB-19 CNS = system: SNB-19 CNS
HOP-92 NSCLC = system: HOP-92 NSCLC
SK-MEL-5 melanoma = system: SK-MEL-5 melanoma
CCRF-CEM leukemia = system: CCRF-CEM leukemia
RPMI-8226 leukemia = system: RPMI-8226 leukemia
SK-MEL-2 melanoma = system: SK-MEL-2 melanoma
SK-MEL-28 melanoma = system: SK-MEL-28 melanoma
UO-31 renal = system: UO-31 renal
HOP-62 NSCLC = system: HOP-62 NSCLC
786-0 renal = system: 786-0 renal
ACHN renal = system: ACHN renal
OVCAR-4 ovarian = system: OVCAR-4 ovarian
PC-3 prostate = system: PC-3 prostate
NCI/ADR-RES ovarian = system: NCI/ADR-RES ovarian
OVCAR-8 ovarian = system: OVCAR-8 ovarian
HCT-15 colon = system: HCT-15 colon
COLO 205 colon = system: COLO 205 colon
OVCAR-3 ovarian = system: OVCAR-3 ovarian
HL-60(TB) leukemia = system: HL-60(TB) leukemia
UACC-257 melanoma = system: UACC-257 melanoma
MDA-MB-231 breast = system: MDA-MB-231 breast

## CCc1ccc(C(=O)/C=C/C23c4ccccc4C(c4ccccc42)C2C(=O)NC(=O)C23)cc1 (centres undefined)
KM12 colon
  GI50: 1820 nM
  TGI: 3770 nM
IGROV1 ovarian
  GI50: 1760 nM
  TGI: 4100 nM
A498 renal
  GI50: 1710 nM
  TGI: 3140 nM
NCI-H23 lung
  GI50: 2090 nM
  TGI: 4150 nM
BT-549 breast
  GI50: 1730 nM
  TGI: 3670 nM
CAKI-1 renal
  GI50: 2270 nM
  TGI: 7290 nM
OVCAR-5 ovarian
  GI50: 2230 nM
  TGI: 5570 nM
NCI-H226 lung
  GI50: 2680 nM
  TGI: 9120 nM
MALME-3M melanoma
  GI50: 1820 nM
  TGI: 3960 nM
HCC-2998 colon
  GI50: 2090 nM
  TGI: 3650 nM
SF-295 CNS
  GI50: 2450 nM
  TGI: 5730 nM
MOLT-4 leukemia
  GI50: 2230 nM
  TGI: 7970 nM
T-47D breast
  GI50: 2280 nM
  TGI: 6400 nM
DU-145 prostate
  GI50: 1660 nM
  TGI: 3080 nM
SF-268 CNS
  GI50: 1860 nM
  TGI: 4090 nM
HS 578T breast
  GI50: 2240 nM
  TGI: 8730 nM
NCI-H460 lung
  GI50: 2120 nM
  TGI: 5090 nM
LOX IMVI melanoma
  GI50: 1670 nM
  TGI: 3160 nM
SR leukemia
  GI50: 1370 nM
  TGI: 4360 nM
MDA-MB-435
  GI50: 2310 nM
  TGI: 5530 nM
NCI-H522 lung
  GI50: 1960 nM
  TGI: 4890 nM
HT29 colon
  GI50: 2200 nM
  TGI: 4750 nM
RXF 393 renal
  GI50: 1720 nM
  TGI: 3240 nM
SN12C renal
  GI50: 1760 nM
  TGI: 3420 nM
MCF7 breast
  GI50: 1890 nM
  TGI: 5620 nM
A549 NSCLC
  GI50: 2070 nM
  TGI: 5540 nM
TK-10 renal
  GI50: 2620 nM
  TGI: 6470 nM
SF-539 CNS
  GI50: 1690 nM
  TGI: 3220 nM
SNB-75 CNS
  GI50: 1670 nM
  TGI: 3450 nM
HCT-116 colon
  GI50: 1580 nM
  TGI: 3650 nM
SW-620 colon
  GI50: 2370 nM
  TGI: 5720 nM
SK-OV-3 ovarian
  GI50: 2840 nM
  TGI: 7540 nM
U251 CNS
  GI50: 1750 nM
  TGI: 3170 nM
M14 melanoma
  GI50: 2070 nM
  TGI: 4740 nM
UACC-62 melanoma
  GI50: 1730 nM
  TGI: 3480 nM
EKVX NSCLC
  GI50: 1600 nM
  TGI: 3560 nM
SNB-19 CNS
  GI50: 1930 nM
  TGI: 3960 nM
HOP-92 NSCLC
  GI50: 1730 nM
  TGI: 3500 nM
SK-MEL-5 melanoma
  GI50: 1650 nM
  TGI: 3210 nM
CCRF-CEM leukemia
  GI50: 2660 nM
  TGI: 11000 nM
RPMI-8226 leukemia
  GI50: 1870 nM
  TGI: 4600 nM
SK-MEL-2 melanoma
  GI50: 2230 nM
  TGI: 4650 nM
SK-MEL-28 melanoma
  GI50: 1960 nM
  TGI: 3600 nM
UO-31 renal
  GI50: 1470 nM
  TGI: 5550 nM
HOP-62 NSCLC
  GI50: 2870 nM
  TGI: 8820 nM
786-0 renal
  GI50: 1810 nM
  TGI: 3540 nM
ACHN renal
  GI50: 3350 nM
  TGI: 12300 nM
OVCAR-4 ovarian
  GI50: 2900 nM
  TGI: 11900 nM
PC-3 prostate
  GI50: 1730 nM
  TGI: 3700 nM
NCI/ADR-RES ovarian
  GI50: 2150 nM
  TGI: 4730 nM
OVCAR-8 ovarian
  GI50: 2090 nM
  TGI: 5680 nM
HCT-15 colon
  GI50: 1790 nM
  TGI: 4020 nM
COLO 205 colon
  GI50: 2130 nM
  TGI: 4020 nM
OVCAR-3 ovarian
  GI50: 1710 nM
  TGI: 3100 nM
HL-60(TB) leukemia
  GI50: 69.7 nM
  TGI: 1930 nM
UACC-257 melanoma
  GI50: 1900 nM
  TGI: 4150 nM
MDA-MB-231 breast
  GI50: 2760 nM
  TGI: 8330 nM
